# Data reported in publication PMC13198257, “An aerosolized dual-action autotaxin inhibitor-PPARγ agonist for the treatment of pulmonary fibrosis” (Cell Reports Medicine, 2026).
# Test system: lung gene expression
# Assay: RNA sequencing of lung tissue (BLM/EL244 vs BLM)
# Format: in vivo, mouse
# Description: RNA quality was assessed using an Agilent TapeStation 4150 with the High Sensitivity […] ScreenTape (Agilent), according to the manufacturer’s protocols. For library preparation, the QuantSeq 3’mRNA-Seq Library Prep Kit (Lexogen) was used according to manufacturer’s instructions. Briefly, 500 ng of RNA from each sample was used for first-strand synthesis, followed by RNA template removal, and second-strand synthesis initiated by random primers. In-line barcodes were introduced at this step, and this was followed by magnetic bead-based purification. The resulting libraries were amplified for 15 cycles and re-purified, with quantity and quality assessed on a Qubit 4 Fluorometer with the Invitrogen Qubit dsDNA HS Assay and an Agilent Tapestation 4150 with the High Sensitivity D1000 assay kit, respectively. The quantified libraries were pooled equimolarly; 50ng of total library mix was used for Adapter Conversion PCR Amplification using the Universal Library Conversion Kit (App-A), Version: V1.0 (MGI Tech Co., Ltd.), according to the manufacturer’s instructions.
# The quantity and quality of the purified adapter conversion PCR (AC-PCR) product were evaluated on a Qubit 4 Fluorometer with the Invitrogen Qubit dsDNA HS Assay and on an Agilent Tapestation 4150 with the High Sensitivity D1000 assay kit, respectively. This was followed by DNA denaturation, Single-Strand Circularisation, Enzymatic Digestion, Enzymatic Digestion Product Cleanup and Quality Control steps on 1 pmol of AC-PCR product, according to the Universal Library Conversion Kit (App-A) User Manual (Version: A3).
# Finally, 60 fmol of ssCirDNA were used for DNB preparation and sequencing on a DNBSEQ-G400 platform at the BSRC Alexander Fleming Genomics Facility, using a G400 App-A FCS SE100 High-throughput Sequencing Set (MGI Tech Co., Ltd.), according to the manufacturer’s instructions.
# Alignment of the FASTQ files was performed against the mouse genome build mm10 using a custom Bash script.[143] Read counting on the 3′ UTRs and differential expression analysis were conducted using the metaseqR2 bioconductor package.[144] Genes corresponding to the following biotypes were excluded: polymorphic_pseudogene, processed_transcript, pseudogene, IG_V_pseudogene, misc_RNA, IG_C_gene, IG_J_gene, IG_D_gene, IG_LV_gene, TR_V_gene, TR_V_pseudogene, TEC, and processed_pseudogene. Gene counts were normalized with DESEQ[145] through metaseqR2. Genes with more than 10 counts in at least 50% of the samples were kept for further processing. For differential expression analysis, the PANDORA algorithm[146] was used to estimate a meta p-value integrating the results from the DESEQ, DESEQ2,[147] edgeR,[148] limma,[149] NBPSeq,[150] and NOISeq[151] algorithms. All additional parameters were set to default values.
# Pathway enrichment analysis was performed for the Gene Ontology Biological process (BP) and Molecular Function (MF) terms through GeneCodis 4.[152] The volcano plots, scatterplots, Venn diagrams, and dot plots were generated using the ggplot2 Bioconductor package.
smiles,measurement,setting,value
"O=C1NC(=O)C(Cc2ccc(OCCC3CCN(C(=O)OCc4cc(Cl)cc(Cl)c4)CC3)cc2)S1 (stereo not shown) [EL244, 3,5-dichlorobenzyl 4-(2-(4-((2,4-dioxothiazolidin-5-yl)methyl)phenoxy)ethyl)piperidine-1-carboxylate]",Ear1 log2 nFC BLM/EL244 vs BLM,"DEG Ear1, nFC: normalised fold change",1.11
same,Ednrb log2 nFC BLM/EL244 vs BLM,"DEG Ednrb, nFC: normalised fold change",0.97
same,Elmod1 log2 nFC BLM/EL244 vs BLM,"DEG Elmod1, nFC: normalised fold change",0.89
same,Eml5 log2 nFC BLM/EL244 vs BLM,"DEG Eml5, nFC: normalised fold change",1.41
same,Eng log2 nFC BLM/EL244 vs BLM,"DEG Eng, nFC: normalised fold change",0.81
same,Errfi1 log2 nFC BLM/EL244 vs BLM,"DEG Errfi1, nFC: normalised fold change",0.95
same,Esm1 log2 nFC BLM/EL244 vs BLM,"DEG Esm1, nFC: normalised fold change",1.28
same,Fabp3 log2 nFC BLM/EL244 vs BLM,"DEG Fabp3, nFC: normalised fold change",0.98
same,Fabp12 log2 nFC BLM/EL244 vs BLM,"DEG Fabp12, nFC: normalised fold change",1.43
same,Faim2 log2 nFC BLM/EL244 vs BLM,"DEG Faim2, nFC: normalised fold change",2.03
same,Fam71f2 log2 nFC BLM/EL244 vs BLM,"DEG Fam71f2, nFC: normalised fold change",1.96
same,log2 nFC BLM/EL244 vs BLM,DEG Fcgr1,-1.30
same,log2 nFC BLM/EL244 vs BLM,DEG Fcrls,-1.35
same,log2 nFC BLM/EL244 vs BLM,DEG Fgf13,-1.40
same,log2 nFC BLM/EL244 vs BLM,DEG Fkbp10,-1.25
same,Fmo1 log2 nFC BLM/EL244 vs BLM,"DEG Fmo1, nFC: normalised fold change",0.86
same,Fmo2 log2 nFC BLM/EL244 vs BLM,"DEG Fmo2, nFC: normalised fold change",1.00
same,Fosb log2 nFC BLM/EL244 vs BLM,"DEG Fosb, nFC: normalised fold change",2.38
same,log2 nFC BLM/EL244 vs BLM,DEG Foxm1,-1.56
same,Fxyd1 log2 nFC BLM/EL244 vs BLM,"DEG Fxyd1, nFC: normalised fold change",0.80
same,Fzd4 log2 nFC BLM/EL244 vs BLM,"DEG Fzd4, nFC: normalised fold change",0.69
same,Galnt15 log2 nFC BLM/EL244 vs BLM,"DEG Galnt15, nFC: normalised fold change",0.89
same,log2 nFC BLM/EL244 vs BLM,DEG Gas2l3,-1.32
same,Ggt1 log2 nFC BLM/EL244 vs BLM,"DEG Ggt1, nFC: normalised fold change",1.91
same,log2 nFC BLM/EL244 vs BLM,DEG Gins2,-1.57
same,Gm867 log2 nFC BLM/EL244 vs BLM,"DEG Gm867, nFC: normalised fold change",2.18
same,Gm4956 log2 nFC BLM/EL244 vs BLM,"DEG Gm4956, nFC: normalised fold change",1.08
same,Gm9780 log2 nFC BLM/EL244 vs BLM,"DEG Gm9780, nFC: normalised fold change",2.06
same,Gm14964 log2 nFC BLM/EL244 vs BLM,"DEG Gm14964, nFC: normalised fold change",1.87
same,Gm20186 log2 nFC BLM/EL244 vs BLM,"DEG Gm20186, nFC: normalised fold change",1.31
same,Gm26236 log2 nFC BLM/EL244 vs BLM,"DEG Gm26236, nFC: normalised fold change",1.03
same,Gm42722 log2 nFC BLM/EL244 vs BLM,"DEG Gm42722, nFC: normalised fold change",1.79
same,Gm47291 log2 nFC BLM/EL244 vs BLM,"DEG Gm47291, nFC: normalised fold change",0.98
same,Gm49353 log2 nFC BLM/EL244 vs BLM,"DEG Gm49353, nFC: normalised fold change",2.21
same,Gm49391 log2 nFC BLM/EL244 vs BLM,"DEG Gm49391, nFC: normalised fold change",0.96
same,Gnao1 log2 nFC BLM/EL244 vs BLM,"DEG Gnao1, nFC: normalised fold change",0.85
same,Gnmt log2 nFC BLM/EL244 vs BLM,"DEG Gnmt, nFC: normalised fold change",1.14
same,Gpm6a log2 nFC BLM/EL244 vs BLM,"DEG Gpm6a, nFC: normalised fold change",0.83
same,Gpr155 log2 nFC BLM/EL244 vs BLM,"DEG Gpr155, nFC: normalised fold change",0.76
same,Gprasp1 log2 nFC BLM/EL244 vs BLM,"DEG Gprasp1, nFC: normalised fold change",0.72
same,Gpt log2 nFC BLM/EL244 vs BLM,"DEG Gpt, nFC: normalised fold change",0.73
same,Gria1 log2 nFC BLM/EL244 vs BLM,"DEG Gria1, nFC: normalised fold change",1.61
same,Gsn log2 nFC BLM/EL244 vs BLM,"DEG Gsn, nFC: normalised fold change",1.06
same,Gsta3 log2 nFC BLM/EL244 vs BLM,"DEG Gsta3, nFC: normalised fold change",1.10
same,Gstm1 log2 nFC BLM/EL244 vs BLM,"DEG Gstm1, nFC: normalised fold change",0.75
same,log2 nFC BLM/EL244 vs BLM,DEG Gtse1,-1.49
same,log2 nFC BLM/EL244 vs BLM,DEG Gxylt2,-1.47
same,Gzma log2 nFC BLM/EL244 vs BLM,"DEG Gzma, nFC: normalised fold change",1.70
same,log2 nFC BLM/EL244 vs BLM,DEG H2ac11,-1.45
same,log2 nFC BLM/EL244 vs BLM,DEG H2ac12,-1.44
same,Hba-a1 log2 nFC BLM/EL244 vs BLM,"DEG Hba-a1, nFC: normalised fold change",1.21
same,Hba-a2 log2 nFC BLM/EL244 vs BLM,"DEG Hba-a2, nFC: normalised fold change",1.14
same,Hbb-bs log2 nFC BLM/EL244 vs BLM,"DEG Hbb-bs, nFC: normalised fold change",1.10
same,Hbb-bt log2 nFC BLM/EL244 vs BLM,"DEG Hbb-bt, nFC: normalised fold change",1.09
same,log2 nFC BLM/EL244 vs BLM,DEG Hells,-1.30
same,Hhatl log2 nFC BLM/EL244 vs BLM,"DEG Hhatl, nFC: normalised fold change",2.05
same,Hlf log2 nFC BLM/EL244 vs BLM,"DEG Hlf, nFC: normalised fold change",0.89
same,Igf1r log2 nFC BLM/EL244 vs BLM,"DEG Igf1r, nFC: normalised fold change",0.70
